# Results from US20020137929A1, “1 - (3-heterocyclylphenyl) isothiourea, -isourea, -guanidine and -amidine herbicidal agents” (Intellectual Property Department, BASF Aktiengesellschaft, priority 1998, published 2002).
# How the values were obtained:
# [1] = tested on: ZEAMX (Corn, Field); experiment: Postemergence herbicidal evaluation; format: in vivo, Zea mays; conditions: for ZEAMX herbicidal rating / Herbicidal rating ZEAMX: postemergence
# In short: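 Compound is applied as a foliar spray to seedlings about two weeks old, formulated in equal parts acetone and water with 0.5% TWEEN 20 and delivered at 40 psi to give about 0.0156–0.500 kg per hectare. Injury is rated visually 0–9 after four to five weeks.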
# [2] = tested on: GLXMAW (Soybean, Williams); experiment: Preemergence herbicidal evaluation; format: in vivo, Glycine max, (L.) Merr. cv Williams; conditions: rated 4-5 weeks after treatment; for GLXMAW rating: preemergence, 0-9 scale
# In short: (§1)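 Seeds were planted in potting soil in cups, then sprayed preemergence with the test compound in aqueous acetone at about 0.0156 to 0.500 kg per hectare. Cups were kept under greenhouse conditions and visually rated 4–5 weeks after treatment on a 0–9 scale against an untreated control.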
# [3] = tested on: ABUTH (Velvetleaf); experiment: Preemergence herbicidal evaluation; format: in vivo, Abutilon theophrasti; conditions: rated 4-5 weeks after treatment; for ABUTH rating: preemergence, 0-9 scale
# In short: as §1
# [4] = tested on: AMBEL (Ragweed, Common); experiment: Preemergence herbicidal evaluation; format: in vivo, Ambrosia artemisifolia; conditions: rated 4-5 weeks after treatment; for AMBEL rating: preemergence, 0-9 scale
# In short: as §1
# [5] = tested on: SAGPY (Arrowhead (Pygmaea)); experiment: Postemergence weed control under flooded paddy conditions; format: in vivo, Sagittaria pygmaea; conditions: postemergence weeds
# In short: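 With weeds 3 to 5 cm tall and rice at the 1.5 to 2.5 leaf stage, containers were flooded and water held 1.5 to 3 cm above soil. Compounds in 50/50 v/v aqueous/acetone went into the flood water at about 0.0313 to 0.500 kg/ha a.i. Effects were visually rated 0–9 against controls after three to four weeks in the greenhouse.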
# [6] = tested on: MOOVA (Monochoria); experiment: as above; format: in vivo, Monochoria vaginalis; conditions: postemergence weeds
# Text: Results of herbicide evaluation are expressed on a rating scale (0-9). The scale is based upon a visual observation of plant stand, vigor, malformation, size, chlorosis and overall plant appearance as compared with a control.
# Plastic containers containing weeds which are 3 to 5 cm tall and rice seedlings at the 1.5 to 2.5 leaf stage are flooded with water. The water is maintained at 1.5 to 3 cm above the soil surface for the duration of the experiment. Test compounds are applied as aqueous/ acetone mixtures 50/50 v/v directly into the flood water to provide the equivalent of about 0.0313 to 0.500 kg/ha of active ingredient. The treated containers are placed on greenhouse benches and cared for in accordance with conventional greenhouse procedures. Three to four weeks after treatment, the test is terminated and each container is examined and herbicidal effect rated according to the rating system provided in Example 37. The compounds evaluated are reported by compound number given in Example 37.
# [7] = rate 0.0313 kg/ha, 3-4 weeks after treatment
# [8] = rate 0.0625 kg/ha, 3-4 weeks after treatment
# [9] = rate 0.1250 kg/ha, 3-4 weeks after treatment
# [10] = rate 0.2500 kg/ha, 3-4 weeks after treatment
# [11] = Rate 0.0313 kg/ha, rated 3 to 4 weeks after treatment
# [12] = Rate 0.0625 kg/ha, rated 3 to 4 weeks after treatment
# [13] = Rate 0.1250 kg/ha, rated 3 to 4 weeks after treatment
# [14] = Rate 0.2500 kg/ha, rated 3 to 4 weeks after treatment
# [15] = Rate 0.5000 kg/ha, rated 3 to 4 weeks after treatment
smiles,measurement,setting,value
"CCOC(=O)CN1C(=O)CSC1=Nc1cc(-n2c(=O)cc(C(F)(F)F)n(C)c2=O)c(F)cc1Cl [Compound 8, Ethyl 2-{{2-chloro-5-[3,6-dihydro-3-methyl-2,6-dioxo-4-(trifluoromethyl)-1(2H)pyrimidinyl]-4-fluorophenyl}imino}-4-oxo-3-thiazolidineacetate]",ZEAMX herbicidal rating,[1]; rate 0.0157 kg/ha,7.5
same,ZEAMX herbicidal rating,[1]; rate 0.0313 kg/ha,7.3
same,ZEAMX herbicidal rating,[1]; rate 0.0625 kg/ha,7.4
same,ZEAMX herbicidal rating,[1]; rate 0.1250 kg/ha,7.6
same,GLXMAW preemergence herbicidal rating,[2]; rate 0.0156 kg/ha,0.2
same,GLXMAW preemergence herbicidal rating,[2]; rate 0.0313 kg/ha,1.1
same,GLXMAW preemergence herbicidal rating,[2]; rate 0.0625 kg/ha,3.2
same,GLXMAW preemergence herbicidal rating,[2]; rate 0.1250 kg/ha,5.9
same,GLXMAW preemergence herbicidal rating,[2]; rate 0.2500 kg/ha,7.9
same,GLXMAW preemergence herbicidal rating,[2]; rate 0.5000 kg/ha,8.8
same,ABUTH preemergence herbicidal rating,[3]; rate 0.0156 kg/ha,7.3
same,ABUTH preemergence herbicidal rating,[3]; rate 0.0313 kg/ha,8.4
same,ABUTH preemergence herbicidal rating,[3]; rate 0.0625 kg/ha,8.7
same,ABUTH preemergence herbicidal rating,[3]; rate 0.1250 kg/ha,9.0
same,ABUTH preemergence herbicidal rating,[3]; rate 0.2500 kg/ha,9.0
same,ABUTH preemergence herbicidal rating,[3]; rate 0.5000 kg/ha,9.0
same,AMBEL preemergence herbicidal rating,[4]; rate 0.0156 kg/ha,1.6
same,AMBEL preemergence herbicidal rating,[4]; rate 0.0313 kg/ha,4.5
same,AMBEL preemergence herbicidal rating,[4]; rate 0.0625 kg/ha,5.7
same,AMBEL preemergence herbicidal rating,[4]; rate 0.1250 kg/ha,8.5
same,AMBEL preemergence herbicidal rating,[4]; rate 0.2500 kg/ha,8.9
same,AMBEL preemergence herbicidal rating,[4]; rate 0.5000 kg/ha,9.0
same,Herbicidal rating SAGPY,[5]; [7],0.0
same,Herbicidal rating SAGPY,[5]; [8],0.0
same,Herbicidal rating SAGPY,[5]; [9],0.0
same,Herbicidal rating SAGPY,[5]; [10],0.0
same,Herbicidal rating MOOVA,[6]; [7],9.0
same,Herbicidal rating MOOVA,[6]; [8],9.0
same,Herbicidal rating MOOVA,[6]; [9],9.0
same,Herbicidal rating MOOVA,[6]; [10],9.0
"CCOC(=O)CN1C(=O)C2(CC2)SC1=Nc1cc(-n2c(=O)cc(C(F)(F)F)n(C)c2=O)c(F)cc1Cl [Compound 15, Ethyl 5-{{2-chloro-5-[3,6-dihydro-3-methyl-2,6-dioxo-4-(trifluoromethyl)-1(2H)-pyrimidinyl]-4-fluorophenyl}imino}-7-oxo-4-thia-6-azaspiro[2.4]-heptane-6-acetate]",ZEAMX herbicidal rating,[1]; rate 0.0156 kg/ha,5.0
same,ZEAMX herbicidal rating,[1]; rate 0.0313 kg/ha,6.0
same,ZEAMX herbicidal rating,[1]; rate 0.0625 kg/ha,7.0
same,ZEAMX herbicidal rating,[1]; rate 0.1250 kg/ha,7.5
same,GLXMAW preemergence herbicidal rating,[2]; rate 0.0156 kg/ha,0.5
same,GLXMAW preemergence herbicidal rating,[2]; rate 0.0313 kg/ha,0.5
same,GLXMAW preemergence herbicidal rating,[2]; rate 0.0625 kg/ha,1.0
same,GLXMAW preemergence herbicidal rating,[2]; rate 0.1250 kg/ha,2.5
same,GLXMAW preemergence herbicidal rating,[2]; rate 0.2500 kg/ha,5.5
same,ABUTH preemergence herbicidal rating,[3]; rate 0.0156 kg/ha,1.5
same,ABUTH preemergence herbicidal rating,[3]; rate 0.0313 kg/ha,3.0
same,ABUTH preemergence herbicidal rating,[3]; rate 0.0625 kg/ha,9.0
same,ABUTH preemergence herbicidal rating,[3]; rate 0.1250 kg/ha,9.0
same,ABUTH preemergence herbicidal rating,[3]; rate 0.2500 kg/ha,9.0
same,AMBEL preemergence herbicidal rating,[4]; rate 0.0156 kg/ha,0.5
same,AMBEL preemergence herbicidal rating,[4]; rate 0.0313 kg/ha,1.0
same,AMBEL preemergence herbicidal rating,[4]; rate 0.0625 kg/ha,1.5
same,AMBEL preemergence herbicidal rating,[4]; rate 0.1250 kg/ha,3.0
same,AMBEL preemergence herbicidal rating,[4]; rate 0.2500 kg/ha,9.0
same,Herbicidal rating SAGPY,[5]; [7],0.0
same,Herbicidal rating SAGPY,[5]; [8],0.0
same,Herbicidal rating SAGPY,[5]; [9],0.0
same,Herbicidal rating SAGPY,[5]; [10],0.0
same,Herbicidal rating MOOVA,[6]; [7],9.0
same,Herbicidal rating MOOVA,[6]; [8],9.0
same,Herbicidal rating MOOVA,[6]; [9],9.0
same,Herbicidal rating MOOVA,[6]; [10],9.0
"CCOC(=O)CN1C(=O)C(CC(=O)OC(C)C)SC1=Nc1cc(-n2c(=O)cc(C(F)(F)F)n(C)c2=O)c(F)cc1Cl (stereo not shown) [Compound 55, 2-{{2-Chloro-5-[3,6-dihydro-3-methyl-2,6-dioxo-4-(trifluoromethyl)-1(2H)-pyrimidinyl]-4-fluoro-phenyl}imino}-4-oxo-3,5-thiazolidinediacetic acid, 3-ethyl isopropyl ester]",Postemergence herbicidal rating ZEAMX,[1]; Rate 0.0158 kg/ha,7.5
same,Postemergence herbicidal rating ZEAMX,[1]; Rate 0.0313 kg/ha,8.3
same,Postemergence herbicidal rating ZEAMX,[1]; Rate 0.0625 kg/ha,8.7
same,Postemergence herbicidal rating ZEAMX,[1]; Rate 0.1250 kg/ha,8.8
same,Postemergence herbicidal rating ZEAMX,[1]; Rate 0.2500 kg/ha,9.0
same,Herbicidal rating SAGPY,[5]; [7],0.0
same,Herbicidal rating SAGPY,[5]; [8],0.0
same,Herbicidal rating SAGPY,[5]; [9],0.0
same,Herbicidal rating SAGPY,[5]; [10],0.0
same,Herbicidal rating MOOVA,[6]; [7],9.0
same,Herbicidal rating MOOVA,[6]; [8],9.0
same,Herbicidal rating MOOVA,[6]; [9],9.0
same,Herbicidal rating MOOVA,[6]; [10],9.0
"C=CCN1C(=O)C(CC(=O)NS(C)(=O)=O)SC1=Nc1cc(-n2c(=O)cc(C(F)(F)F)n(C)c2=O)c(F)cc1Cl (stereo not shown) [Compound 96, 3-Allyl-2-{{2-chloro-5-[3,6-dihydro-3-methyl-2,6-dioxo-4-(trifluoromethyl)-1(2H)-pryimidinyl]-4-fluorophenyl}imino}-N-(methylsulfonyl)-4-oxo-5-thiazolidineacetamide]",ZEAMX herbicidal rating,[1]; rate 0.0156 kg/ha,4.5
same,ZEAMX herbicidal rating,[1]; rate 0.0313 kg/ha,4.5
same,ZEAMX herbicidal rating,[1]; rate 0.0625 kg/ha,4.5
same,ZEAMX herbicidal rating,[1]; rate 0.1250 kg/ha,5.0
same,GLXMAW rating,[2]; 0.0313 kg/ha,0.0
same,GLXMAW rating,[2]; 0.0625 kg/ha,0.0
same,GLXMAW rating,[2]; 0.1250 kg/ha,0.0
same,GLXMAW rating,[2]; 0.2500 kg/ha,3.0
same,GLXMAW rating,[2]; 0.5000 kg/ha,4.0
same,ABUTH rating,[3]; 0.0313 kg/ha,1.0
same,ABUTH rating,[3]; 0.0625 kg/ha,9.0
same,ABUTH rating,[3]; 0.1250 kg/ha,9.0
same,ABUTH rating,[3]; 0.2500 kg/ha,9.0
same,ABUTH rating,[3]; 0.5000 kg/ha,9.0
same,AMBEL rating,[4]; 0.0313 kg/ha,0.0
same,AMBEL rating,[4]; 0.0625 kg/ha,0.0
same,AMBEL rating,[4]; 0.1250 kg/ha,1.0
same,AMBEL rating,[4]; 0.2500 kg/ha,4.0
same,AMBEL rating,[4]; 0.5000 kg/ha,6.0
same,Herbicidal rating MOOVA,[6]; [11],2.0
same,Herbicidal rating MOOVA,[6]; [12],2.0
same,Herbicidal rating MOOVA,[6]; [13],3.0
same,Herbicidal rating MOOVA,[6]; [14],3.0
"CCOC(=O)CN1C(=O)C(CC(=O)NO)S/C1=N/c1cc(-n2c(=O)cc(C(F)(F)F)n(C)c2=O)c(F)cc1Cl (stereo not shown) [Compound 98, Ethyl 2-{{2-chloro-5-[3,6-dihydro-3-methyl-2,6-dioxo-4-(trifluoromethyl)-1(2H)-pyrimidinyl]-4-fluorophenyl}imino}-5-[(hydroxycarbamoyl)methyl]-4-oxo-3-thiazolidineacetate]",ZEAMX herbicidal rating,[1]; rate 0.0156 kg/ha,3.0
same,ZEAMX herbicidal rating,[1]; rate 0.0313 kg/ha,4.0
same,ZEAMX herbicidal rating,[1]; rate 0.0625 kg/ha,4.0
same,ZEAMX herbicidal rating,[1]; rate 0.1250 kg/ha,5.0
same,GLXMAW rating,[2]; 0.0156 kg/ha,0.0
same,GLXMAW rating,[2]; 0.0313 kg/ha,0.0
same,GLXMAW rating,[2]; 0.0625 kg/ha,1.0
same,GLXMAW rating,[2]; 0.1250 kg/ha,1.0
same,GLXMAW rating,[2]; 0.2500 kg/ha,4.0
same,GLXMAW rating,[2]; 0.5000 kg/ha,5.0
same,ABUTH rating,[3]; 0.0156 kg/ha,0.0
same,ABUTH rating,[3]; 0.0313 kg/ha,0.0
same,ABUTH rating,[3]; 0.0625 kg/ha,2.0
same,ABUTH rating,[3]; 0.1250 kg/ha,6.0
same,ABUTH rating,[3]; 0.2500 kg/ha,6.0
same,ABUTH rating,[3]; 0.5000 kg/ha,9.0
same,AMBEL rating,[4]; 0.0156 kg/ha,0.0
same,AMBEL rating,[4]; 0.0313 kg/ha,0.0
same,AMBEL rating,[4]; 0.0625 kg/ha,2.0
same,AMBEL rating,[4]; 0.1250 kg/ha,3.0
same,AMBEL rating,[4]; 0.2500 kg/ha,5.0
same,AMBEL rating,[4]; 0.5000 kg/ha,7.0
same,Herbicidal rating MOOVA,[6]; [11],9.0
same,Herbicidal rating MOOVA,[6]; [12],9.0
same,Herbicidal rating MOOVA,[6]; [13],9.0
same,Herbicidal rating MOOVA,[6]; [14],9.0
"C=CCN1C(=O)C(CC(=O)NS(=O)(=O)c2ccccc2)SC1=Nc1cc(-n2c(=O)cc(C(F)(F)F)n(C)c2=O)c(F)cc1Cl (stereo not shown) [Compound 101, 3-Allyl-2-{{2-chloro-5-[3,6-dihydro-3-methyl-2,6-dioxo-4-(trifluoromethyl)-1(2H)-pyrimidinyl]-4-fluorophenyl}imino}-4-oxo-N-(phenylsulfonyl)-5-thiazolidineacetamide]",Herbicidal rating ZEAMX,[1]; rate 0.0156 kg/ha,4.5
same,Herbicidal rating ZEAMX,[1]; rate 0.0313 kg/ha,4.5
same,Herbicidal rating ZEAMX,[1]; rate 0.0625 kg/ha,5.0
same,Herbicidal rating ZEAMX,[1]; rate 0.1250 kg/ha,5.0
same,Herbicidal rating SAGPY,[5]; [11],0.0
same,Herbicidal rating SAGPY,[5]; [12],0.0
same,Herbicidal rating SAGPY,[5]; [13],0.0
same,Herbicidal rating SAGPY,[5]; [14],2.0
same,Herbicidal rating SAGPY,[5]; [15],4.0
same,Herbicidal rating MOOVA,[6]; [11],5.0
same,Herbicidal rating MOOVA,[6]; [12],5.0
same,Herbicidal rating MOOVA,[6]; [13],7.0
same,Herbicidal rating MOOVA,[6]; [14],9.0
same,Herbicidal rating MOOVA,[6]; [15],9.0
